# Target: T1, hDGAT1 (Homo sapiens, UniProt O75907)
# T1 construct: host or cells: Sf9 insect cells (baculovirus); microsomal preparation
# T1 sequence (O75907 1-488): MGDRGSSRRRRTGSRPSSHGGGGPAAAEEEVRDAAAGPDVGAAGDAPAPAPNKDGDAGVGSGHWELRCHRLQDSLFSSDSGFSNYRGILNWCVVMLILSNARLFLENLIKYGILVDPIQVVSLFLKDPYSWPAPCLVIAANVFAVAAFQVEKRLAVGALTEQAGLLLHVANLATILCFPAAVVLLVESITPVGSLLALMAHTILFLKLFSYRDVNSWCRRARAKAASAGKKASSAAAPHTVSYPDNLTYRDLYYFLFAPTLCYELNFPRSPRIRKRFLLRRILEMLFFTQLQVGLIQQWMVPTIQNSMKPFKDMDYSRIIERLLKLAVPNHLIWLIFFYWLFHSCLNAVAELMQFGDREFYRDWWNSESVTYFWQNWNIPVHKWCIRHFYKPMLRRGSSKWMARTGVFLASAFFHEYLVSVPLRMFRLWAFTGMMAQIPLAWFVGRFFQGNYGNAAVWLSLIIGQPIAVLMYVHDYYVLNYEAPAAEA
# Assay: In-vitro DGAT1 assay (hDGAT1 microsomes from Sf9 cells, 14C oleoyl CoA, triglyceride formation)
# Assay type: biochemical
# In short: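 Compounds tested in duplicate at 10, 5 and 1 μM for 10 min at 37 °C. Reaction: Sf9-expressed hDGAT1 microsomes (2.5–10 μg), [14C]oleoyl-CoA plus 409.5–1638 μM dioleoylglycerol, pH 7.4 Tris-HCl with fatty-acid-free BSA. Radiolabelled triglyceride extracted into heptane and scintillation-counted.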
smiles,measurement,value
"C=C(NC(=O)c1cc(-c2ccc(NC(=O)Nc3ccccc3F)cc2)no1)C(=O)OC [Example 301, Methyl 2-(3-(4-(3-(2-fluorophenyl)ureido)phenyl)isoxazole-5-carboxamido)acrylate]",inhibition at 5 µM,50 to 75%
"COC(=O)C(C)NC(=O)c1cc(-c2ccc(NC(=O)Nc3ccc(F)cc3)cc2)no1 (stereo not shown) [Example 115, Methyl 2-(3-(4-(3-(4-fluorophenyl)ureido)phenyl)isoxazole-5-carboxamido)propanoate]",inhibition at 10 µM,0 to 50%
"CCC(C)[C@H](NC(=O)c1cc(-c2ccc(NC(=O)Nc3ccccc3)cc2)no1)C(=O)OC (stereo partly drawn) [Example 78, (S)-3-Methyl-2-({3-[4-(3-phenyl-ureido)-phenyl]-isoxazole-5-carbonyl}-amino)-pentanoic acid methyl ester]",inhibition at 10 µM,0 to 50%
"O=C(O)C1(NC(=S)c2cc(-c3ccc(Nc4nc5ccc(F)cc5s4)cc3)no2)CCCC1 [Example 65, 1-({3-[4-(6-Fluoro-benzothiazol-2-ylamino)-phenyl]-isoxazole-5-carbothioyl}-amino)-cyclopentanecarboxylic acid]",inhibition at 10 µM,0 to 50%
"CC(C)C(NC(=O)c1cc(-c2ccc(NC(=O)Nc3ccc(F)c(Cl)c3)cc2)no1)C(=O)O (stereo not shown) [Example 162, 2-(3-(4-(3-(3-chloro-4-fluorophenyl)ureido)phenyl)isoxazole-5-carboxamido)-3-methylbutanoic acid]",inhibition at 1 µM,75 to 100%
"COC(=O)[C@H](NC(=O)c1cc(-c2ccc(NS(=O)(=O)c3ccccc3F)cc2)no1)C(C)C [Example 315, (R)-methyl 2-(3-(4-(2-fluorophenylsulfonamido)phenyl)isoxazole-5-carboxamido)-3-methylbutanoate]",inhibition at 1 µM,0 to 50%
"CC(C)C(NC(=O)c1cc(-c2ccc(NC(=O)Nc3cccc(F)c3)cc2)no1)C(=O)O (stereo not shown) [Example 152, 2-(3-(4-(3-(3-fluorophenyl)ureido)phenyl)isoxazole-5-carboxamido)-3-methylbutanoic acid]",inhibition at 5 µM,75 to 100%

# Source: patent publication US8835428B2, “Diacylglycerol acyltransferase inhibitors” (Piramal Enterprises Limited, priority 2008, dated 2014)
